In US20060134217A1, “Leukotriene and integrin inhibitor combination and treatment method” (priority 2004, published 2006):
Marks after values point to notes of the source that are not given here.

Experiments:
[1] = tested on: mild and moderate asthmatics; conditions: cited from earlier work
[2] = tested on: stable asthmatic adults maintained on inhaled corticosteroids; conditions: cited from earlier work
[3] = tested on: mild/moderate asthmatics not treated with inhaled corticosteroids; test: ARES study: R411 monotherapy, 12 week treatment period; type: in vivo, human; conditions: for % Asthma exacerbation / Asthma control Questionnaire (Total Score), change from baseline / Morning asthma symptoms, change from baseline / Nocturnal awakenings (scores), change from baseline / Rescue β 2-agonist use (puffs/d), change from baseline: 12 weeks, ITT population
Protocol: The ARES study illustrated in FIG. 4 was designed to evaluate the safety and efficacy of monotherapy R411 over a 12 week treatment period in 480 mild/moderate asthmatics not treated with inhaled corticosteroids. Patients were randomized to one of four cohorts: 50, 200, 600 mg QD R411, or placebo (n=120/group). The primary endpoint in the study was change in FEV1 from baseline, and secondary endpoints included PEFR, asthma exacerbations, β2-agonist use, asthma control questionnaire, asthma symptom scores, and nocturnal awakenings.
ARES study evaluated the safety and efficacy of monotherapy with R411 over a 12-week treatment period in 479 mild/moderate asthmatics not treated with inhaled corticosteroids. Patients were randomized to one of four cohorts: 50, 200, 600 mg once daily R411, or placebo.

[4] = tested on: persistent asthmatics on low to medium inhaled corticosteroids; test: Phase II add-on of R411 to inhaled corticosteroids (MARS study); type: in vivo, human; conditions: added to moderate dose inhaled corticosteroids, subpopulation with less well controlled asthma
Text: As set out above, a second component in the solid pharmaceutical dosage form comprises a therapeutically effective amount of R411 (N-(2-chloro-6-methylbenzoyl)-4-[(2,6-dichlorobenzoyl)amino]-L-phenylalanine-2-(diethylamino)ethyl ester), or a pharmaceutically acceptable salt thereof. […] The MARS study illustrated in FIG. 3 was designed to evaluate the safety and efficacy of R411 over a 12 week treatment period in 350 persistent asthmatics being treated with a stable dose of low to medium inhaled corticosteroids and inhaled short acting […]. Patients were randomized to one of five cohorts: 50, 200, 600 mg once daily (QD) or 300 mg twice daily (BID) R411, or placebo (n=70/group). After a 2-week placebo run-in period and subsequent 2-week add-on period (R411 or placebo), morning inhaled corticosteroids were removed. Two weeks later, evening inhaled corticosteroids were removed, and patients remained in the treatment period for an additional 8 weeks. The primary endpoint in the study was the percentage change in FEV1 from baseline, and secondary endpoint included PEFR, asthma exacerbations, β2-agonist use, asthma control questionnaire, asthma symptom scores, nocturnal awakenings, FEF25-75 and rate of asthma treatment failures.

atopic primate = test: Airway inflammation in the atopic primate, oral R411; type: in vivo; conditions: oral administration, FIG. 6
key inflammatory cells = test: Migration of inflammatory cells from blood into lungs; conditions: in vivo
α4 = target: T1, α4 (Homo sapiens, UniProt P13612); test: In vitro binding to α4 integrin
T1 sequence (P13612 34-1032): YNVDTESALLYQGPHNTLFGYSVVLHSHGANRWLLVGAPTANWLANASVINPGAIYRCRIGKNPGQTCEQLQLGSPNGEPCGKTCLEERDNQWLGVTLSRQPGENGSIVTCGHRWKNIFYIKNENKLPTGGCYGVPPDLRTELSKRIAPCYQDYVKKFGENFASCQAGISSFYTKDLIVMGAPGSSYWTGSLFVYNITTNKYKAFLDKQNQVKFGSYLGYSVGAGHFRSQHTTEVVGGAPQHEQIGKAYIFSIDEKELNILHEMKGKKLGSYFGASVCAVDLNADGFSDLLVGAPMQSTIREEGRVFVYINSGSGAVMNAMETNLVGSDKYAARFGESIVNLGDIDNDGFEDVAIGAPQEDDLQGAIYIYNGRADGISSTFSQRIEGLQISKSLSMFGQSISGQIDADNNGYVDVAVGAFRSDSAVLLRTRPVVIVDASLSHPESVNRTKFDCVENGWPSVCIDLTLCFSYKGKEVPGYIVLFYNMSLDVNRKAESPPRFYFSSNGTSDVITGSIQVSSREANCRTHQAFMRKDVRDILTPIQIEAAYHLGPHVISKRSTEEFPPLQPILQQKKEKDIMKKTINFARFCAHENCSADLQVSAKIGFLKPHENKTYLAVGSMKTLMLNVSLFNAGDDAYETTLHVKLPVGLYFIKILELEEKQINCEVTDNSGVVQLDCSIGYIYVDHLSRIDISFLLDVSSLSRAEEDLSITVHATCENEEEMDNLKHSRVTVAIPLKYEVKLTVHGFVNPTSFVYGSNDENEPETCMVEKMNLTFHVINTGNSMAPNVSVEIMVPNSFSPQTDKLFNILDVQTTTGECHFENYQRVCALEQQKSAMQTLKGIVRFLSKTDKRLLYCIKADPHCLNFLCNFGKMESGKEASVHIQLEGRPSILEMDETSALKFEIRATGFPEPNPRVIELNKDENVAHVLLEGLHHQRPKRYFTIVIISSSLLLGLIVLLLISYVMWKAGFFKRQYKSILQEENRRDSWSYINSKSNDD

[5] = target: α4/β1 to vascular cell adhesion molecule (VCAM-1) (Homo sapiens, UniProt P05556+P13612); test: Inhibition of α4/β1 binding to VCAM-1
Text: (§1) R411 inhibits the binding of α4/β1 to vascular cell adhesion molecule (VCAM-1) and α4/β7 to MadCAM-1 by […]. R411 is disclosed in U.S. Pat. No. 6,229,011, which disclosure is incorporated by reference herein.

α4/β7 to MadCAM-1 = target: T2, α4/β7 to MadCAM-1 (Homo sapiens, UniProt P13612+P26010); test: Inhibition of α4/β7 binding to MadCAM-1
T2 sequence (P13612 34-1032): T1 sequence (P13612 34-1032)
T2 sequence (P26010 20-798): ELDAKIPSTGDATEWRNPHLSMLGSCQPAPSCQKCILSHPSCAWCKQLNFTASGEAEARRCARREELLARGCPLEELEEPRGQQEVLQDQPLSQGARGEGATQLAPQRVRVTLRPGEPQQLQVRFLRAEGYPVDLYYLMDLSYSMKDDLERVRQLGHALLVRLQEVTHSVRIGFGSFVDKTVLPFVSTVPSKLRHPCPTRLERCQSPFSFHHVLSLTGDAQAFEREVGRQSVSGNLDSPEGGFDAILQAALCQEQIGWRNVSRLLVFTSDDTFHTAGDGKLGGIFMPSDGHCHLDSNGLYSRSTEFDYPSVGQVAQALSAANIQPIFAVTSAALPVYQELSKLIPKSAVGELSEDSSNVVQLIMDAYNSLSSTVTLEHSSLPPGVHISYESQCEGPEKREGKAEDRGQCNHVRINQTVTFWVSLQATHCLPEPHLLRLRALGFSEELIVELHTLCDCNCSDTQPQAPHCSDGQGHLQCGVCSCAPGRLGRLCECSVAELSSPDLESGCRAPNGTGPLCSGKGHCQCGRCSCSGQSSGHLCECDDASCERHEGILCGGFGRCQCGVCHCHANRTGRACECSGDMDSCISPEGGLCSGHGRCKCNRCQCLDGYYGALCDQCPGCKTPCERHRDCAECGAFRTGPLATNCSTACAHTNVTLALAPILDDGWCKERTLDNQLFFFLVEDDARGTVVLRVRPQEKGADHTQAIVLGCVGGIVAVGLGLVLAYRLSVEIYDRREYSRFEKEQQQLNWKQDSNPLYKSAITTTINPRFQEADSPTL
Text: as §1

[6] = tested on: α4/β1 and α4/β7 integrins; test: Integrin selectivity
[7] = Text: The pharmaceutical dosage forms may also be formulated to provide a chronobiological synergy of the two compounds.
[8] = 50, 200, 600 mg once daily vs placebo

Sequence of α4/β1 to vascular cell adhesion molecule (VCAM-1) (P05556 21-798, one chain of several): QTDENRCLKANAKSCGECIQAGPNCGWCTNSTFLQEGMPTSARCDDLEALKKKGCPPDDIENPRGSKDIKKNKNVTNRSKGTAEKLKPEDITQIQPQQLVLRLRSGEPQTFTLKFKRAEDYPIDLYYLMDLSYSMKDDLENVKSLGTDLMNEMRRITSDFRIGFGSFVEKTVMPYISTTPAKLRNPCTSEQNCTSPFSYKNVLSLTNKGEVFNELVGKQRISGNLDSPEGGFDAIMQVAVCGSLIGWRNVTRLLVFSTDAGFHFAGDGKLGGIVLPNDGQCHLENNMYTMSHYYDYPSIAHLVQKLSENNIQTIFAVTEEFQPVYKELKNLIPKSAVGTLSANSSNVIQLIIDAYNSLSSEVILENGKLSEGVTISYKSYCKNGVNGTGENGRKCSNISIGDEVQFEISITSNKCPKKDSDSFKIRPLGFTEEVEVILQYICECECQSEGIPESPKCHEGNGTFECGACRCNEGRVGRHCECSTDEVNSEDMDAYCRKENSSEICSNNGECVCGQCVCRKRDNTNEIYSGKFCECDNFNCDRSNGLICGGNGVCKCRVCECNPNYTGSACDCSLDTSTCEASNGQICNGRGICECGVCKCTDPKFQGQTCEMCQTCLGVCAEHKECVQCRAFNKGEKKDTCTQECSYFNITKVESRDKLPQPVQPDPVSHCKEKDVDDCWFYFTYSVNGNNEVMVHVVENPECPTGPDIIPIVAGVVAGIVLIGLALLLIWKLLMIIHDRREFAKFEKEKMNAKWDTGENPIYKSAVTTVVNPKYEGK

For `CC(C)(O)c1ccccc1CC[C@@H](SCC1(CC(=O)[O-])CC1)c1cccc(/C=C/c2ccc3ccc(Cl)cc3n2)c1.[Na+]` [montelukast, [R-(E)]-1-[[[1-[3-[2-(7-chloro-2-quinolinyl)ethenyl]phenyl]-3-[2-(1-hydroxy-1-methylethyl)phenyl]propyl]thio]methyl]cyclopropaneacetic acid, monosodium salt], the “reduction of "as-needed" (beta)-agonist use from baseline” value ([1]; adult patients, placebo 4.6%) is given as 26.1%, the “reduction of nocturnal awakenings from baseline” value ([1]; patients with nocturnal awakenings of at least 2 nights per week, combined analysis, placebo 15%) is given as 34% and the “reduction in mean inhaled corticosteroid dose” value ([2]; 12-week active treatment period, placebo 30%) is given as 47%. The “patients successfully tapered off inhaled corticosteroids” value ([2]; at conclusion of study, placebo 29%, p=NS) was “Approximately 40%”.

With `CCN(CC)CCOC(=O)[C@H](Cc1ccc(NC(=O)c2c(Cl)cccc2Cl)cc1)NC(=O)c1c(C)cccc1Cl` [R411, N-(2-Chloro-6-methylbenzoyl)-4-[(2,6-dichlorobenzoyl)amino]-L-phenylalanine-2-(diethylamino)ethyl ester] the “% Asthma exacerbation” value ([3]; 200 mg once daily) was 25.6%, the “Asthma control Questionnaire (Total Score), change from baseline” value ([3]; 200 mg once daily) was −0.29 [2.08] and the “Morning asthma symptoms, change from baseline” value ([3]; 200 mg once daily) was −0.34* [1.55]. For the same molecule, the “Nocturnal awakenings (scores), change from baseline” value ([3]; 200 mg once daily) was −0.15*/[0.61] scores, the “Rescue β 2-agonist use (puffs/d), change from baseline” value ([3]; 200 mg once daily) was −0.36/[3.04] puffs/d and the “% Asthma exacerbation” value ([3]; 600 mg once daily) was 26.10%. For the same molecule, the “Asthma control Questionnaire (Total Score), change from baseline” value ([3]; 600 mg once daily) was −0.23 [2.00], the “Morning asthma symptoms, change from baseline” value ([3]; 600 mg once daily) was −0.33* [1.57] and the “Nocturnal awakenings (scores), change from baseline” value ([3]; 600 mg once daily) was −0.12*/[0.58] scores. The “Rescue β 2-agonist use (puffs/d), change from baseline” value ([3]; 600 mg once daily) was −0.41*/[3.11] puffs/d, the “decrease in daytime asthma and nocturnal symptom score” value [3, 8] was “Statistically significant improvements” and the “reducing rescue albuterol use” value [3, 8] was “Statistically significant improvements”. For the same molecule, the “Asthma Control Questionnaire Scores and Asthma Quality-of-Life” value ([3]; compared to placebo) was “Improvement”, the “small airway flow rates as measured by FEF25-75” value ([3]; monotherapy, FIG. 4) was “significant effect” and the “reduction in asthma exacerbations” value ([3]; two highest doses of 200 and 600 mg) was 26%. For the same molecule, the “large airway flow rates as measured by FEV1” value ([4]; FIG. 2) was “additive effect”, the “small airway flow rates measured by FEF25-75” value ([4]; FIG. 3) was “additive effect” and the airway inflammation (atopic primate) was “attenuates airway inflammation”. The “migration of key inflammatory cells from the blood into the lungs” value (key inflammatory cells) was “block the migration”, the binding affinity (α4; activated α4) was “high affinity” and the dissociation (α4; activated α4) was “slow dissociation”. The dissociation (α4; receptor not activated) was “more rapid”, the “in vitro binding affinity” value (α4; receptor not activated) was “lower” and the “inhibition of binding of α4/β1 to VCAM-1” value [5] was “inhibits”. For the same molecule, the “inhibition of binding of α4/β7 to MadCAM-1” value (α4/β7 to MadCAM-1) was “inhibits”, the integrin selectivity [6] was “effective against both α4/β1 and α4/β7 integrins” and the acid/base character [7] was “weak base”. For the same molecule, the “solubility along the gastrointestinal tract” value [7] was “higher solubility in the upper part of the gastrointestinal tract”.
